This is an account of results in patent US20080260770A1, “Use of Tellurium Compounds as Adjuvants” (BIOMAS LTD., priority 2004, published 2008).

Strand notation (5' to 3'): a small letter for the sugar, then the base; units joined by * are phosphorothioate-linked, units joined directly phosphodiester-linked; [ ] holds rarer units or linkages, { } end groups; capitals alone tell only the bases. d = 2'-deoxy (DNA)

Data set [1] concerns KLH-specific IgG1 and IgG2a. Description: Serum antibody responses to KLH in immunized mice (ELISA titers). The format is in vivo. On the procedure: Serum was obtained from mice immunized with depyrogenated keyhole limpet hemocyanin (KLH) (5 μg; Calbiochem, La Jolla, Calif.); with KLH plusphosphorothioate-stabilized oligodeoxynucleotide-containing CpG motifs (CpG-ODN) (5′-GCTAGACGTTAGCGT-3′), synthesized by Sigma-Genosys Ltd., Cambridge, United Kingdom; with KLH, plus CpG, plus AS101 (10 μg/ml PBS); or with Dulbecco's PBS alone (Sigma, Poole, United Kingdom), each in a final volume of 50 μl PBS.
On day 7 after immunization, mice were sacrificed by cervical dislocation, and serum and popliteal lymph nodes were collected. Titers of KLH-specific IgG1 and IgG2a in the serum of the immunized mice were determined by ELISA, and analysed for the presence of antibody subclasses IgG1 and IgG2a.

Data set [2] concerns freshly isolated peripheral blood human monocytes. Description: IL-12 p40 production by human monocytes (ELISA). The class given is cell-based. The settings on record: adherent PBMCs from a healthy donor, 0.5-2 μg/ml PBS, 24 hours incubation, FIG. 1. The procedure: Adherent Peripheral Blood Mononuclear Cells (PBMCs) from a tuberculin-negative healthy donor were incubated with AS101 or AS103 (0.5-2 μg/ml PBS) or E. coli lipopolysaccharide (LPS) (1 ng/ml PBS; Sigma) for 24 hours. Supernatants were collected after 28 hours for analysis of IL-12 production. Cell supernatants were determined using commercially available Enzyme-Linked Immunosorbent Assay (ELISA) kits (R&D Systems). Supernatants were tested for IL-12p40 by ELISA kit (Endogene).

Data set [3] has as its system rats. The settings on record: intravenous and intramuscular administration; cited from earlier work.
Data set [4] has as its system Murine bone marrow-derived dendritic cells. As to the kind of experiment: IL-12 p40 production by murine bone marrow-derived dendritic cells (ELISA). The class given is cell-based, mice. Conditions: DC 10^6 cells/ml, 0.5-10 μg/ml PBS, supernatants after 24 hours, FIG. 2. The procedure: Murine bone marrow-derived dendritic cells (DC) were prepared by culturing bone marrow cells from the femur and tibia of mice in RPMI medium supplemented with 10% supernatant from a granulocyte-monocyte colony-stimulating factor-secreting cell line.
On day 7 of culture, cells were collected, washed, and resuspended in RPMI medium. DC (10^6 cells/ml) were cultured with AS101 or AS103 (0.5-10 μg/ml PBS), or with CpG. Supernatants were collected after 24 hours for analysis of IL-12 p40 production. Cell supernatants were determined using commercially available ELISA kits (R&D Systems).

As for “CpG: phosphorothioate-stabilized oligodeoxynucleotide-containing CpG motifs (CpG-ODN) (5′-GCTAGACGTTAGCGT-3′), synthesized by Sigma-Genosys (DNA dG*dC*dT*dA*dG*dA*dC*dG*dT*dT*dA*dG*dC*dG*dT) [reference compound]”, the “KLH-specific antibody titer (IgG1 and IgG2a) on use together with KLH” value in data set [1] (KLH 5 μg plus CpG versus KLH alone, day 7, FIGS. 3a and 3b) is “increased”.
For the compound `Cl[Te]1(Cl)OCCO1` [AS 103], the “IL-12 p40 production” value in data set [2] was “very low response”.
Regarding `Cl[TeH]1(Cl)(Cl)OCCO1` [AS101, ammonium trichloro(dioxyethylene-O,O′)tellurate], the “KLH-specific IgG1 response to KLH plus CpG on addition of the compound” value in data set [1] (10 μg/ml PBS added to KLH plus CpG, day 7 after immunization, FIG. 3a) is listed as “no further increase”. In addition, the “production of KLH-specific IgG2a in response to KLH plus CpG on addition of the compound” value in data set [1] (10 μg/ml PBS added to KLH plus CpG, day 7 after immunization, FIG. 3b) was “significantly increased”. Also, the “LD50 values relative to the immunologically effective dose” value in data set [3] is reported as 500-1000 folds. In addition, the “IL-12 p40 production” value in data set [2] and in data set [4] was “potent inducer” each time.
